Structures are written as SMILES. pIC50, pKi: −log10 of the molar value. Counter-ions that a name gives are not always drawn. A value given as a limit tells only on which side of the number the result lay.

The target of assay [1] is T1, human recombinant bradykinin B1 receptor (Homo sapiens, UniProt P46663).
T1 construct: host or cells: CHO cells
T1 sequence (P46663 1-353): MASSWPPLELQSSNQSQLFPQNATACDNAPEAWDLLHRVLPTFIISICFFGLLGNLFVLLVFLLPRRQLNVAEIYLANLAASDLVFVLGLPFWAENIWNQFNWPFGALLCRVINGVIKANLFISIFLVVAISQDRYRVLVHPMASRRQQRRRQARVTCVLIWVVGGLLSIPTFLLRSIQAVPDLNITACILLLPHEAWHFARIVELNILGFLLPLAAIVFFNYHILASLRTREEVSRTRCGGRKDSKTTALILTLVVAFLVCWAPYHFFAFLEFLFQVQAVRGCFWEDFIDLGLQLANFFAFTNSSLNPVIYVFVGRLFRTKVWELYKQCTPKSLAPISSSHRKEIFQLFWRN
The assay can be described thus: Human recombinant bradykinin B1 receptor binding. Conditions: CHO cell membranes, [3H]-[Des-Arg10] Kallidin radioligand; read-out: B1 binding. The method, then:
1. Human Recombinant Bradykinin B1 Receptor Binding
Binding assays were carried out on human recombinant bradykinin) receptors (expressed in CHO cells) according to the Euroscreen Technical Data Sheet (Cat.No.:ES-091). 20 μg protein/tube was incubated with [3,4-prolyl-3,4-^3H(N)]-[Des-Arg^10] Kallidin as radioligand. Non specific binding was determined in the presence of 10 μM Lys-des-Arg^9-Bradykinin. The final incubation volume was 250 μl. Samples were incubated for 15 min. at 25° C. then were rapidly vacuum filtered through GF/B filters presoaked for at least 1 h in 0.5% PEI. Radioactivity was determined by liquid scintillation spectroscopy.

Assay [2] deals with T2, recombinant human B1 receptors (Homo sapiens, UniProt P46663).
T2 construct: host or cells: CHO (CHO-B1)
T2 sequence (P46663 1-353): T1 sequence (P46663 1-353)
Put plainly: Functional assay: antagonist potency by cytosolic calcium measurement (fluo-4, plate reader fluorimeter) in CHO-B1 cells. The class given is cell-based. The settings on record: CHO-B1 cells, inhibition of LysDABK (EC80)-evoked [Ca2+]i elevation; read-out: B1 func. The method, then: Assessment of Antagonist Potency at B1 and B2 Receptors In Vitro by Measurement of Cytosolic Calcium Ion Concentration with a Plate Reader Fluorimeter in Cells Expressing Recombinant Human B1 or B2 Receptors
Chinese hamster ovary (CHO) cells stably expressing recombinant human B1 (CHO-B1, Euroscreen) or B2 (CHO-B2, Perkin-Elmer) receptors were cultured in Dulbecco's Modified Eagle's Medium (DMEM) containing 10% Fetal Calf Serum (FCS), 100 U/ml penicillin, 0.1 mg/ml streptomycin, 0.25 μg/ml amphotericin B, 1% Minimum Essential Medium Eagle (MEM), non essential amino acid solution, […], 1% pyruvate (for the B2 cell line). Cells were kept at 37° C. in a humidified incubator in an atmosphere of 5% CO2/95% air and were passaged 1:4 three times a week. Cells were plated at 1.5-2.5×10^4 cell/well on standard 96-well microplates, measurements of cytosolic calcium ion concentration ([Ca^2+]i) were carried out 1-2 days after cell plating.
Measurements of [Ca^2+]i were carried out on CHO-B1 and CHO-B2 cells stably expressing human B1 and B2 receptors, respectively. Cells were grown in standard 96-well microplates and before the measurement were loaded with a fluorescent Ca^2+-sensitive dye, fluo-4/AM (2 μM): after removing the culture medium the dye was added to the cells (dissolved in assay buffer: 145 mM NaCl, 5 mM KCl, 2 mM MgCl2, 2 mM CaCl2, 10 mM HEPES, 20 mM D-glucose, 2 mM probenecid, 100 μl/well) and cells were incubated at 37° C. in a humidified incubator in an atmosphere of 5% CO2/95% air for 40-120 min. To stop dye loading cells were washed twice with assay buffer. After washing, various concentrations of the test compounds (diluted in extracellular medium from a DMSO stock solution, final DMSO concentration was <0.1%) or buffer were added to each well depending on the experimental setup. After incubation at 37° C. for 20-25 min. baseline and agonist-evoked changes of [Ca^2+]i were measured column by column with a plate reader fluorimeter (Fluoroskan Ascent, Labsystems). Excitation and detection of emission was carried out from the bottom of the plate. Filters used for Fluo-4: excitation filter—485 nm, emission filter—538 nm. The whole measurement process was performed at 37° C. and was controlled by custom software Inhibitory potency of the test compounds was assessed by measuring the reduction in the agonist-evoked [Ca^2+]i-elevation in the presence of different concentrations of the compounds. The agonists were LysDABK for CHO-B1, and bradykinin for CHO-B2 cells. Agonists were applied at an EC80 concentration, the EC80-values were derived from daily determined dose-response curves. Fluorescence data were expressed as ΔF/F (fluorescence change normalized to baseline). All treatments on a single plate were measured in multiple wells. Data from all wells with the same treatment were averaged and the average values were used for analysis. Inhibitory potency of a compound at a single concentration point was expressed as percent inhibition of the control agonist response. Sigmoidal concentration-inhibition curves were fitted to the data (derived from at least three independent experiments) and IC50-values were determined as the concentration that produces half of the maximal inhibition caused by the compound.

On to `O=C(CNC(=O)c1ccc(S(=O)(=O)Nc2ccccc2Oc2ccccc2)cc1)NCC(=O)N1CCNCC1` [Example 16, N-[(2-Oxo-2-piperazin-1-yl-ethylcarbamoyl)-methyl]-4-(2-phenoxy-phenylsulfamoyl)-benzamide hydrochloride], for which the pKi in assay [1] was greater than 7.70. In addition, the pIC50 in assay [2] was greater than 7.70.
For `O=C(CNC(=O)c1ccc(S(=O)(=O)Nc2ccccc2C(=O)c2ccccc2)cc1)NCC1CCNCC1` [Example 18, 4-(2-Benzoyl-phenylsulfamoyl)-N-{[(piperidin-4-ylmethyl)-carbamoyl]-methyl}-benzamide hydrochloride], the pKi in assay [1] is greater than 7.70. In addition, the pIC50 in assay [2] was greater than 7.70.
On to `O=C(CNC(=O)c1ccc(S(=O)(=O)Nc2ccccc2Oc2ccc(Cl)cc2Cl)cc1)NCCC1CCNCC1` [Example 22, 4-[2-(2,4-Dichloro-phenoxy)-phenylsulfamoyl]-N-[(2-piperidin-4-yl-ethylcarbamoyl)-methyl]-benzamide acetate], for which the pKi in assay [1] is greater than 7.70. The pIC50 in assay [2] was greater than 7.70.
Take `O=C(CNC(=O)c1ccc(S(=O)(=O)Nc2ccccc2Oc2ccc(Cl)cc2Cl)cc1)NCCN1CCCCC1` [Example 23, 4-[2-(2,4-Dichloro-phenoxy)-phenylsulfamoyl]-N-[(2-piperidin-1-yl-ethylcarbamoyl)-methyl]-benzamide]: the pKi in assay [1] is greater than 7.70. In assay [2], the pIC50 is greater than 7.70.
As for `CN(C)CCCNC(=O)CNC(=O)c1ccc(S(=O)(=O)Nc2ccccc2Oc2ccc(Cl)cc2Cl)cc1` [Example 25, 4-[2-(2,4-Dichloro-phenoxy)-phenylsulfamoyl]-N-[(3-dimethylamino-propylcarbamoyl)-methyl]-benzamide], in assay [1], the pKi is greater than 7.70. Moreover, the pIC50 in assay [2] is greater than 7.70.
For `O=C(CNC(=O)c1ccc(S(=O)(=O)Nc2ccccc2Oc2ccc(Cl)cc2Cl)cc1)NCCCN1CCOCC1` [Example 27, 4-[2-(2,4-Dichloro-phenoxy)-phenylsulfamoyl]-N-[(3-morpholin-4-yl-propylcarbamoyl)-methyl]-benzamide], in assay [1], the pKi is greater than 7.70. Besides, the pIC50 in assay [2] was greater than 7.70.
As for `CC1CCCCN1CCCNC(=O)CNC(=O)c1ccc(S(=O)(=O)Nc2ccccc2Oc2ccc(Cl)cc2Cl)cc1` (centres unmarked) [Example 28, 4-[2-(2,4-Dichloro-phenoxy)-phenylsulfamoyl]-N-{[3-(2-methyl-piperidin-1-yl)-propylcarbamoyl]-methyl}-benzamide], the pKi in assay [1] was greater than 7.70. For the same molecule, in assay [2], the pIC50 is greater than 7.70.
As for `O=C(CNC(=O)c1ccc(S(=O)(=O)Nc2ccccc2Oc2ccc(Cl)cc2Cl)cc1)NCCCn1ccnc1` [Example 29, 4-[2-(2,4-Dichloro-phenoxy)-phenylsulfamoyl]-N-[(3-imidazol-1-yl-propylcarbamoyl)-methyl]-benzamide], the pKi in assay [1] was greater than 7.70. For the same molecule, in assay [2], the pIC50 is greater than 7.70.
With `O=C(CNC(=O)c1ccc(S(=O)(=O)Nc2ccccc2Oc2ccc(Cl)cc2Cl)cc1)NCCN1CCOCC1` [Example 30, 4-[2-(2,4-Dichloro-phenoxy)-phenylsulfamoyl]-N-[(2-morpholin-4-yl-ethylcarbamoyl)-methyl]-benzamide], the pKi in assay [1] is greater than 7.70. The pIC50 in assay [2] is greater than 7.70.
As for `O=C(CNC(=O)c1ccc(S(=O)(=O)Nc2ccccc2Oc2ccc(Cl)cc2Cl)cc1)NCCN1CCCC1` [Example 31, 4-[2-(2,4-Dichloro-phenoxy)-phenylsulfamoyl]-N-[(2-pyrrolidin-1-yl-ethylcarbamoyl)-methyl]-benzamide], the pKi in assay [1] is greater than 7.70. Moreover, the pIC50 in assay [2] was greater than 7.70.
`O=C(CNC(=O)c1ccc(S(=O)(=O)Nc2ccccc2Oc2ccc(Br)cc2Cl)cc1)NCC1CCNCC1` [Example 37, 4-[2-(4-Bromo-2-chloro-phenoxy)-phenylsulfamoyl]-N-{[(piperidin-4-ylmethyl)-carbamoyl]-methyl}-benzamide hydrochloride]: the pKi in assay [1] is greater than 7.70. Moreover, in assay [2], the pIC50 was greater than 7.70.
Regarding `N=C(N)NCc1ccc(CNC(=O)CNC(=O)c2ccc(S(=O)(=O)Nc3ccccc3Oc3ccc(Cl)cc3Cl)cc2)cc1` [Example 39, 4-[2-(2,4-Dichloro-phenoxy)-phenylsulfamoyl]-N-[(4-guanidinomethyl-benzylcarbamoyl)-methyl]-benzamide hydrochloride], in assay [1], the pKi is greater than 7.70. Also, the pIC50 in assay [2] was greater than 7.70.
Consider `O=C(CNC(=O)c1ccc(S(=O)(=O)Nc2ccccc2Oc2ccccc2)cc1)NCCCN1CCC(N2CCCCC2)CC1` [Example 48, N-[(3-[1,4′]Bipiperidinyl-r-yl-propylcarbamoyl)-methyl]-4-(2-phenoxy-phenylsulfamoyl)-benzamide], for which the pKi in assay [1] is greater than 7.70. Besides, the pIC50 in assay [2] is greater than 7.70.
As for `O=C(CNC(=O)c1ccc(S(=O)(=O)Nc2ccccc2Oc2ccccc2)cc1)Nc1ccc(N2CCC(N3CCCCC3)CC2)cc1` [Example 49, N-[(4-[1,4′]Bipiperidinyl-1′-yl-phenylcarbamoyl)-methyl]-4-(2-phenoxy-phenylsulfamoyl)-benzamide], the pKi in assay [1] is greater than 7.70. For the same molecule, in assay [2], the pIC50 was greater than 7.70.
Consider `O=C(CNC(=O)c1ccc(S(=O)(=O)Nc2ccccc2Oc2ccccc2)cc1)N[C@H]1CC[C@H](CCN2CCCC2)CC1` [Example 50, trans-4-(2-Phenoxy-phenylsulfamoyl)-N-{[4-(2-pyrrolidin-1-yl-ethyl)-cyclohexyl-carbamoyl]-methyl}-benzamide], for which the pKi in assay [1] is greater than 7.70. The pIC50 in assay [2] is greater than 7.70.
Take `CN(C)CCCNC(=O)CNC(=O)c1ccc(S(=O)(=O)Nc2ccccc2Oc2ccccc2)cc1` [Example 54, N-[(3-Dimethylamino-propylcarbamoyl)-methyl]-4-(2-phenoxy-phenylsulfamoyl)-benzamide]: in assay [1], the pKi is greater than 7.70. Moreover, the pIC50 in assay [2] is greater than 7.70.
As to `CC1CCCCN1CCCNC(=O)CNC(=O)c1ccc(S(=O)(=O)Nc2ccccc2Oc2ccccc2)cc1` (centres unmarked) [Example 56, N-{[3-(2-Methyl-piperidin-1-yl)-propylcarbamoyl]-methyl}-4-(2-phenoxy-phenylsulfamoyl)-benzamide], the pKi in assay [1] was greater than 7.70. Besides, the pIC50 in assay [2] was greater than 7.70.
As to `O=C(CNC(=O)c1ccc(S(=O)(=O)Nc2ccccc2Oc2ccc(Cl)cc2Cl)cc1)NC1CCNCC1` [Example 60, 4-[2-(2,4-Dichloro-phenoxy)-phenylsulfamoyl]-N-(piperidin-4-ylcarbamoylmethyl)-benzamide hydrochloride], the pKi in assay [1] is greater than 7.70. Further, the pIC50 in assay [2] was greater than 7.70.
Consider `O=C(CNC(=O)c1ccc(S(=O)(=O)Nc2ccccc2Oc2ccc(Cl)cc2Cl)cc1)NCCCC1CCNCC1` [Example 61, 4-[2-(2,4-Dichloro-phenoxy)-phenylsulfamoyl]-N-[(3-piperidin-4-yl-propylcarbamoyl)-methyl]-benzamide hydrochloride], for which the pKi in assay [1] is greater than 7.70. For the same molecule, the pIC50 in assay [2] was greater than 7.70.

Source of the values: patent US20130029991A1, “New Phenylsulfamoyl Benzamide Derivatives as Bradykinin Antagonists” (priority 2006, published 2013).
